Key:
HA-SSTR3 [1] = experiment: SSTR3 phosphorylation, Western blot with phosphosite-specific antibodies, HEK293-transfected; format: cell-based, human; design: key: + = very low activity; ++ = low activity; +++ = high activity; ++++ = very high activity; conditions: HEK293 stably expressing HA-SSTR3, agonist 5 min 37 °C
Description: (§1) Western blot analysis was performed as previously described.
(§2) Next, the activation of human SSTRs induced by SSAs was tested by Western blot using phosphosite-specific antibodies directed against the following residues: S341/pS343 for SSTR2; S337/T341 for SSTR3; T333 for SSTR5 [31].
(§3) 4.1. Western blot analysis
(§4) Western blot analysis was performed as previously described.7–9 Brieﬂy, HEK293 cells stably expressing the human somatostatin receptors were seeded onto poly-L-lysine-coated 60 mm dishes and grown to 90 % confluency. […]
(§5) PierceTM HA epitope tag antibody beads (Thermo Scientific, Rockford, USA) were used to enrich HA-tagged somatostatin receptors or wheat germ lectin-agarose beads for no-tagged somatostatin receptors. To elute proteins from the beads, the samples were incubated in SDS sample buffer for 20 min at 60°C. Supernatants were separated from the beads, loaded on 8% SDS polyacrylamide gels and immunoblotted onto nitrocellulose membranes afterwards. After blocking, membranes were incubated with phosphorylation state-speciﬁc somatostatin receptor antibodies: pS337/pT341-SST3 (7TM0357A), […]
(§6) Antibodies GmbH, Jena, Germany) at a dilution of 1:1000 at 4°C overnight. Membranes were incubated in HRP-linked secondary antibody for 2 hours, followed by detection using a chemiluminescence system (90 mM p-coumaric-acid, 250 mM luminol, 30% […]
(§7) according to the manufacturer’s instructions.

SSTR2 = target: T1, SSTR2 (Homo sapiens, UniProt P30874); experiment: SSTR2 phosphorylation, Western blot with phosphosite-specific antibodies, HEK293-transfected; format: cell-based; conditions: HEK293 stably expressing SSTR2, agonist 5 min 37 °C
T1 construct: expressed in transfected cells
T1 sequence (P30874 whole entry): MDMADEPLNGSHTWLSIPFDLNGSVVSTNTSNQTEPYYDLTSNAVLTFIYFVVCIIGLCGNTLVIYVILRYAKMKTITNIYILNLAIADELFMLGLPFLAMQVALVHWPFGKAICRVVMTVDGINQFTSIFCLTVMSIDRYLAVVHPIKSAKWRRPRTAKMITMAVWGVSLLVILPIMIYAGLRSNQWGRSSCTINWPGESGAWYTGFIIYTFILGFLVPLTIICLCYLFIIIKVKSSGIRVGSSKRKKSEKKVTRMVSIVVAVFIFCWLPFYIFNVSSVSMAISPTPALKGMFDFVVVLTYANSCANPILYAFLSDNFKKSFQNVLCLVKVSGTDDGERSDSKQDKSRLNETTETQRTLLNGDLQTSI
Description: as §1, §2, §3, §4, §5, §6, §7

HA-tagged SSTR5 = experiment: SSTR5 internalization in HEK293 cells, confocal microscopy; format: cell-based, human; conditions: 1 µM agonist, 30 min 37 °C
Description: (§8) HEK293 cells obtained from DSMZ (Braunschweig, Germany) were transfected with plasmid encoding […] HA-tagged SSTR2, SSTR3 or SSTR5 receptors.
(§9) HEK293 cells stably expressing HA-tagged hSSTR cultures were preincubated with anti-HA antibody for 2 h at 4 °C and then exposed to 1 µM agonist for 30 min at 37 °C before fixing and further labeling with Alexa488-conjugated secondary antibody. After mounting with Roti®-MountFluorCare DAPI, cultures were examined using a Zeiss LSM510 META laser scanning confocal microscope (Zeiss, Jena, Germany) (see Supplementary Materials for details).
(§10) GH produced by primary cultures was tested by ELISA assay using Rat Growth Hormone Biotrak Enzyme immunoassay Mouse/Rat Growth ELISA (DSL-10-72100) or Rat/Mouse Growth Hormone ELISA (Millipore EZRMGH-45K) diluting supernatants 1:20, according to manufacturer’s instructions. […]
(§11) U2OS recombinant cell lines were obtained from Innoprot (Derio, Spain). […] Nuclei were stained using DAPI (2 μg/ml) and the ﬂuorescence was measured using a BD Pathway 855 High-Content Bioimager from Becton Dickinson. The receptor internalization was calculated using AttoVision Software. […]
(§12) Agonist activity of test compounds was calculated relatively to positive control

µ (MOP) (h) = experiment: Single-dose binding assay on µ opioid receptor; design: species or system human; conditions: 10^−5 M
κ (KOP) = experiment: Single-dose binding assay on κ opioid receptor; conditions: 10^−5 M
HA-SSTR3 [2] = experiment: SSTR3 internalization in HEK293 cells, confocal microscopy; format: cell-based, human; conditions: 1 µM agonist, 30 min 37 °C
Description: as §8, §9, §10, §11, §12

δ (DOP) (h) = experiment: Single-dose binding assay on δ opioid receptor; design: species or system human; conditions: 10^−5 M
[3] = tested on: GHRH-stimulated GH release, primary cultures of rat anterior pituitary cells; experiment: Inhibition of GHRH-induced GH release in rat pituitary primary cell culture; format: cell-based; conditions: rat GHRH 3x10^-9 M, 3 h 37 °C, GH by ELISA
SSTR2-tGFP = experiment: Receptor internalization in U2OS-transfected cells (SSTR2-tGFP); format: cell-based, human; conditions: 3 h, high-content imaging, n = 3, method: percentage of activity relative to SST28 10^−6 M
Description: Compounds were tested at five concentrations (10^−5, 10^−6, 10^−7, 10^−8, 10^−9 M) in comparison to untreated cells.
SST agonists were added to U2OS recombinant cell lines in OptiMeM medium (Life technologies 51985-034, Monza, Italy) for 3 h (SSTR2, SSTR3) or 7 h (SSTR5) (n = 3). After formaldehyde fixation, nuclei were stained using DAPI (2 µg/mL), and the fluorescence was measured with BD Pathway 855 High-Content Bioimager from Becton Dickinson. The receptor internalization was calculated using AttoVision 1.6 Software. Approximately 500 cells per field were analyzed. […]
(Invitrogen, Carlsbad, CA). Stable transfectants were selected in the presence of 500 µg/ml G-418. […]
% picric acid in phosphate buﬀer (pH 6.9) for 30 minutes at room temperature (RT). […]
3.2. U2OS human cell lines transfected with human receptors (SSTR2-tGFP, SSTR3-tGFP,
Compounds were tested at ﬁve d iﬀerent concentrations (10-5, 10-6, 10-7, 10-8, 10^-9 M) in comparison to untreated cells.
as §11, §12

NOP (ORL1) (h) = experiment: Single-dose binding assay on NOP receptor; design: species or system human; conditions: 10^−5 M

COc1cc2cccc(OC)c2cc1C[C@H]1NC(=O)[C@H](Cc2ccc(O)cc2)NC(=O)[C@@H]2C[C@@H](OC(=O)NCCN)CN2C(=O)[C@H](Cc2ccccc2)NC(=O)[C@H](Cc2ccc(OCc3ccccc3)cc2)NC(=O)[C@H](CCCCN)NC1=O [ITF2984, Cyclo[Tyr(Bn)-Phe-Pro(4-OCONH(CH2)2NH2)-Tyr-3,8-diMeONal-Lys]]
Phosphorylation SSTR sites (HEK293-transfected): SSTR3—PS337/T341 (HA-SSTR3 [1]): ++++ | Phosphorylation SSTR sites (HEK293-transfected): SSTR3—PT438 (HA-SSTR3 [1]): ++++ | Phosphorylation SSTR sites (HEK293-transfected): SSTR2—PS341/S343 (SSTR2): ++ | internalization of SSTR5 in transfected HEK293 cells (HA-tagged SSTR5): partial internalization | Percentage of inhibition of opioid receptor µ (MOP) (h) (agonist) (µ (MOP) (h)): 97% | Percentage of inhibition of opioid receptor κ (KOP) (agonist) (κ (KOP)): 97% | internalization of SSTR3 in transfected HEK293 cells (HA-SSTR3 [2]): strong internalization | Percentage of inhibition of opioid receptor δ (DOP) (h) (agonist) (δ (DOP) (h)): 79% | GH release (inhibition ≅ 1 nM) [3]: 50% | Receptor internalization in U2OS-transfected cells, SSTR2, at 10^−5 M (SSTR2-tGFP; 10^−5 M): 37.3 | Receptor internalization in U2OS-transfected cells, SSTR2, at 10^−6 M (value in brackets) (SSTR2-tGFP; 10^−6 M): 35.9 | Percentage of inhibition of opioid receptor NOP (ORL1) (h) (agonist) (NOP (ORL1) (h)): 61%

Reference: article PMC10340464, “Identification of a Novel SSTR3 Full Agonist for the Treatment of Nonfunctioning Pituitary Adenomas” (Cancers, 2023)
